From patent US20160153045A1, “Biomarkers for Increased Risk of Drug-Induced 5-Aminosalicylate Nephrotoxicity” (Severe Adverse Event (SAE) Consortium, priority 2014, published 2016)

Legend:
[1] = tested on: Inflammatory bowel disease patients; details: human, in vivo
Excerpt: Methods: Inflammatory bowel disease patients were recruited from 89 sites around the world. Inclusion criteria included normal renal function prior to commencing 5-ASA, ≧50% rise in creatinine any time after starting 5-ASA and physician opinion implicating 5-ASA strong enough to justify drug withdrawal. An adjudication panel identified definite and probable cases from structured case report forms. A genome wide association study was then undertaken with these cases and 4,109 disease controls.
Patient Recruitment: Individual study sites identified and recruited patients with 5-ASA induced nephrotoxicity. This study was open to recruitment at 118 UK research sites (73.8% of the 160 acute NHS trusts in the UK) as well as 45 international sites. In total 77 sites from the UK and 12 sites from outside the UK recruited one or more patients. The protocol was approved by the National Research Ethics Committee South West, Exeter, UK (10/H0203/76) and by all local research and development offices.
Inclusion criteria for patient recruitment required the presence of all of the following: • Patient administered any 5-ASA compound for treatment of inflammatory bowel disease (Crohn's disease, ulcerative colitis or IBD-unclassified) • Patient aged 6 or over • Normal creatinine or estimated glomerular filtration rate (eGFR) prior to first administration of 5-ASA or a creatinine that returned to the normal range after cessation of therapy • Greater than or equal to 50% rise in serum creatinine any time after introduction of 5-ASA • Physician opinion implicating 5-ASA strong enough to justify drug withdrawal, even if temporary
Cases were identified from recruiting sites through clinics and systematic searches of historical records and pathology databases. Gastroenterologists who replied to a 2001-2002 UK survey of 5-ASA induced nephrotoxicity were encouraged to submit cases^10. Clinicians who had submitted adverse drug reaction reports to the Medicines and Healthcare Products Regulatory Agency (MHRA) were invited to consider recruiting patients. Direct advertising to patients through the national patient newsletter was also undertaken. Cases were recruited who developed nephrotoxicity between 1988 and 2013 (73% of cases were diagnosed with renal injury after the year 2000).
Case adjudication: An anonymised case report form detailing demographic, clinical and drug history was completed with the aid of hospital records. Two 6 ml EDTA blood samples were taken at this visit for DNA extraction (BD Vacutainer, USA). The case report forms also requested creatinine levels and their corresponding dates at four time points: 1) at baseline (usually before 5-ASA commenced, but not exclusively), 2) at the recording of first abnormal creatinine value, 3) the worst creatinine value and 4) the best recovered creatinine value. After data collection, the last normal creatinine value before development of renal injury was also obtained, if it was available (92/151 cases), to enable better characterisation of the time period. If a renal biopsy was performed, the anonymised report was requested.
To assess patient eligibility for entry to this study, at least three gastroenterologists and at least one nephrologist reviewed each case for causality at a dedicated in-person adjudication panel meeting. For each case the evidence implicating the 5-ASA as the cause of nephrotoxicity was assessed using an adapted version of the validated Liverpool Adverse Drug Reaction Causality Assessment Tool^16. Patients were classified as definite, probable, possible or unlikely cases of 5-ASA nephrotoxicity based on the adjudicator's independent assessment that the nephrotoxicity was due to 5-ASA treatment. The panel discussed all cases before a final adjudication decision was reached. Only individuals classified as probable or definite cases of 5-ASA induced nephrotoxicity were taken forward for clinical and genetic analyses. […]

patients = details: in vivo; cited from earlier work

With `Nc1ccc(O)c(C(=O)O)c1` [5-ASA, 5-aminosalicylate] the “biopsies with acute interstitial inflammation” value [1] was 22%, the “biopsies with acute on chronic interstitial inflammation” value [1] was 20% and the “biopsies with only chronic inflammatory changes in the interstitium” value [1] was 58%. The “cases with an abnormal creatinine within the first 12 months of treatment” value [1] was 13%, the “cases with full recovery of renal function after drug withdrawal” value [1] was 30% and the “definite cases: second episode of kidney injury when re-challenged with the agent” value [1] was 5 cases. For the same compound, the “patients requiring renal replacement therapy” value [1] was 15 patients, the “renal biopsies with clear evidence of interstitial nephritis” value [1] was 57 patients and the “annual risk of nephrotoxicity” value (patients) was 0.26%.
